Measured values as given in paper PMC4324447 (Journal of Medicinal Chemistry, 2014).

Assays:
WT hMC4R = WT hMC4R (Homo sapiens, UniProt P32245); type: cell-based
L106P hMC4R = L106P hMC4R (Homo sapiens, UniProt P32245, L106P); test: cAMP based CRE/β-galactosidase reporter gene functional bioassay, L106P hMC4R; type: cell-based
L106P hMC4R, sequence (P32245 whole entry L106P): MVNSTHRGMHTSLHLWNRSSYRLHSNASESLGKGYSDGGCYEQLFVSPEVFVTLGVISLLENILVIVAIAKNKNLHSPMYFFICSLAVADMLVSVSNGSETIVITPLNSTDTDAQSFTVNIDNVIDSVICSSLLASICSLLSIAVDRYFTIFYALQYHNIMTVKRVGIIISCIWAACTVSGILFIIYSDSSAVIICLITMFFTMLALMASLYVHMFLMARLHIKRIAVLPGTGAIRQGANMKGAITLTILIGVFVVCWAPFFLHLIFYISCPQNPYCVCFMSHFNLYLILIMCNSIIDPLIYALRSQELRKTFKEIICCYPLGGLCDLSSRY

WT hMC4R, sequence (P32245 whole entry): as the sequence (P32245 whole entry L106P) above, with P106L counted along it

SMILES: CC(=O)N[C@@H](Cc1cnc[nH]1)C(=O)N[C@H](Cc1ccccc1)C(=O)N[C@@H](CCCN=C(N)N)C(=O)N1Cc2ccccc2C[C@H]1C(N)=O [EMH4-107, Ac-His-DPhe-Arg-Tic-NH2]
- EC50 (WT hMC4R): > 10 µM
- EC50 (L106P hMC4R): > 100 µM
